This note sets out measurements from patent publication US20170128390A1, “DISINFECTANT AND ANTIMICROBIAL COMPOSITIONS, IN PARTICULAR FOR THE VETERINARY FIELD” (I.C.F. S.R.L., priority 2014, published 2017).

Test [1] has as its system Staphylococcus aureus ATCC 25923. Nature of the test: Time-killing assay (bactericidal activity of new formulations), CFU count. The class given is cell-based. The settings on record: CLX 0.000106%, AMP 2041 0.5 μg/ml; for Δ (change of CFU count) at T0 / CFU count at T0: T0 = 0 min; for CFU count at T0 / CFU count at T0.5 / CFU count at T1 / CFU count at T3 / CFU count at T5 / CFU count at T10: CC 600; for Δ (change of CFU count) at T0.5 / CFU count at T0.5: T0.5 = 0.5 min; for Δ (change of CFU count) at T1 / CFU count at T1: T1 = 1 min; for Δ (change of CFU count) at T3 / CFU count at T3: T3 (footnote: T2.5 = 2.5 min); for Δ (change of CFU count) at T5 / CFU count at T5: T5 = 5 min; for Δ (change of CFU count) at T10 / CFU count at T10: T10 = 10 min. As to the method:
For each strain of reference, three to five morphologically similar colonies are selected from blood agar plates and inoculated into tubes containing 6 ml of Brain Heart Infusion broth (DIFCO, USA).
The tubes are vortexed and incubated at 37° C. with stirring at 225 rpm for 3-4 hours, until achieving a required degree of turbidity, greater than or equal to 0.5 of the Mc Farland scale.
Thereafter, the bacterial suspension is centrifuged at 1000 rpm for 20 minutes. The resulting pellet of bacteria is resuspended in 10mM PB. The turbidity is adjusted with the same buffer solution and checked by measuring the absorbance of the suspension at the spectrophotometer. The absorbance is considered equal to 0.5 of the Mc Farland scale when the optical density at 600 nm is between 0:08-0:13. At this value, the bacterial suspension contains approximately 10^8UFC/ml. Two hundred microliters of the assessed and adjusted bacterial suspension are added to 19.8 ml of 10 mM PB to obtain a final dilution of 1:100. Then, within a thirty minutes, 0:05 ml of this suspension (10^6UFC/ml) are inoculated into each well of an ELISA plate to obtain a final concentration of bacteria of about 5×10^5UFC/ml.
The time-killing assay was carried out to evaluate the bactericidal effects of the new formulations, using a modified quantitative test of the European standards EN1040 and EN1276. 100 μl of the bacterial suspension are added to 900 μl of the new formulation and aliquots of 50 μl of the mixture are subjected to assay at 0.5, 1, 2.5, 5, 10, 20, 30, 60, 90 and 120 min., respectively. 450 μl of neutralizing solution are added to each sample and left to act at room temperature for 3 minutes. Thereafter, each sample is serially diluted in PBS (pH 7.4) and 50 μl are plated on LB agar and the plates incubated at 37° C. for 24 hours for the count of CFU. The sterility control (100 μl PBS in place of the bacterial suspension) and the control in the absence of the new formulation are set up. The test is also carried out in the presence of 0.3% and 3.0% (w/v) BSA to simulate a paraphysiological environment. All experiments were repeated in triplicate.

For test [2], the system named is Pseudomonas aeruginosa ATCC 27853. The test is described as above. The class given is cell-based. The settings on record: CLX 0.000106%, AMP 2041 0.5 μg/ml, TRIS-EDTA 0.1% alone or 0.476%-0.126% in triple combination; for Δ (change of CFU count) at T0 / CFU count at T0: T0 = 0 min; for CFU count at T0 / CFU count at T0.5 / CFU count at T1 / CFU count at T3 / CFU count at T5 / CFU count at T10: CC 600; for Δ (change of CFU count) at T0.5 / CFU count at T0.5: T0.5 = 0.5 min; for Δ (change of CFU count) at T1 / CFU count at T1: T1 = 1 min; for Δ (change of CFU count) at T3 / CFU count at T3: T3 (footnote: T2.5 = 2.5 min); for Δ (change of CFU count) at T5 / CFU count at T5: T5 = 5 min; for Δ (change of CFU count) at T10 / CFU count at T10: T10 = 10 min. As to the method:
The tubes are vortexed and incubated at 37° C. with stirring at 225 rpm for 3-4 hours, until achieving a required degree of turbidity, greater than or equal to 0.5 of the Mc Farland scale. Thereafter, the bacterial suspension is centrifuged at 1000 rpm for 20 minutes. The resulting pellet of bacteria is resuspended in 10mM PB. The turbidity is adjusted with the same buffer solution and checked by measuring the absorbance of the suspension at the spectrophotometer. The absorbance is considered equal to 0.5 of the Mc Farland scale when the optical density at 600 nm is between 0:08-0:13. At this value, the bacterial suspension contains approximately 10^8UFC/ml. Two hundred microliters of the assessed and adjusted bacterial suspension are added to 19.8 ml of 10 mM PB to obtain a final dilution of 1:100. Then, within a thirty minutes, 0:05 ml of this suspension (10^6UFC/ml) are inoculated into each well of an ELISA plate to obtain a final concentration of bacteria of about 5×10^5UFC/ml. […] Thereafter, each sample is serially diluted in PBS (pH 7.4) and 50 μl are plated on LB agar and the plates incubated at 37° C. for 24 hours for the count of CFU. The sterility control (100 μl PBS in place of the bacterial suspension) and the control in the absence of the new formulation are set up. The test is also carried out in the presence of 0.3% and 3.0% (w/v) BSA to simulate a paraphysiological environment. All experiments were repeated in triplicate.

Take `[H]/N=C(\N/C(=N/[H])NCCCCCCNC(=N)NC(=N)Nc1ccc(Cl)cc1)Nc1ccc(Cl)cc1` [CLX, chlorhexidine]: in test [1], the “Δ (change of CFU count) at T0” value is listed as “Δ = 0%”, the “CFU count at T0” value came out at 600, the “Δ (change of CFU count) at T0.5” value is listed as “Δ = 0%” and the “CFU count at T0.5” value came to 600. In test [1], the “Δ (change of CFU count) at T1” value is “Δ = 0%”, the “CFU count at T1” value was found to be 600, the “Δ (change of CFU count) at T3” value is on record as “Δ = 0%” and the “CFU count at T3” value was found to be 600. Also, in test [1], the “Δ (change of CFU count) at T5” value was “Δ = 0%”, the “CFU count at T5” value came to 600, the “Δ (change of CFU count) at T10” value is listed as “Δ = 0%” and the “CFU count at T10” value is given as 600. For the same compound, in test [2], the “Δ (change of CFU count) at T0” value was “Δ = 0%”, the “CFU count at T0” value was determined as 600, the “Δ (change of CFU count) at T0.5” value is reported as “Δ = 0%” and the “CFU count at T0.5” value is given as 600. In test [2], the “Δ (change of CFU count) at T1” value was “Δ = 0%”, the “CFU count at T1” value was determined as 600, the “Δ (change of CFU count) at T3” value was “Δ = 0%” and the “CFU count at T3” value is reported as 600. Besides, in test [2], the “Δ (change of CFU count) at T5” value is “Δ = 0%”, the “CFU count at T5” value was 600, the “Δ (change of CFU count) at T10” value is given as “Δ = 0%” and the “CFU count at T10” value came to 600.

Take “AMP 2041: peptide named AMP2041 (SEQ.ID. No.1), synthesized by SelleckChem (HKCAKIKWRGVHVKYCA)”: in test [1], the “Δ (change of CFU count) at T0” value is “Δ = 0%”, the “CFU count at T0” value turned out to be 600, the “Δ (change of CFU count) at T0.5” value is “Δ = 0%” and the “CFU count at T0.5” value was 600. For the same compound, in test [1], the “Δ (change of CFU count) at T1” value is given as “Δ = 0%”, the “CFU count at T1” value was found to be 600, the “Δ (change of CFU count) at T3” value was “Δ = 0%” and the “CFU count at T3” value is listed as 600. For the same compound, in test [1], the “Δ (change of CFU count) at T5” value is on record as “Δ = 0%”, the “CFU count at T5” value turned out to be 600, the “Δ (change of CFU count) at T10” value is reported as “Δ = 0%” and the “CFU count at T10” value is recorded as 600. In test [2], the “Δ (change of CFU count) at T0” value is given as “Δ = 0%”, the “CFU count at T0” value amounted to 600, the “Δ (change of CFU count) at T0.5” value is “Δ = 0%” and the “CFU count at T0.5” value is listed as 600. Moreover, in test [2], the “Δ (change of CFU count) at T1” value is “Δ = 0%”, the “CFU count at T1” value is reported as 600, the “Δ (change of CFU count) at T3” value was “Δ = 0%” and the “CFU count at T3” value is given as 600. Besides, in test [2], the “Δ (change of CFU count) at T5” value was “Δ = 0%”, the “CFU count at T5” value came out at 600, the “Δ (change of CFU count) at T10” value is reported as “Δ = 0%” and the “CFU count at T10” value is given as 600.
